Test results published in paper PMC4420714 (Peptides, 2015).
Entries after “also recorded” stand apart in the source; their conditions may differ. Like-named read-outs stand apart in the source and are kept apart here.

What was measured:
VPAC1-R [1] = biological target: T1, VPAC1-R (Homo sapiens, UniProt P32241); test: Binding of 125I-VIP to VPAC1-R/PANC-1 cells; conditions: ratio of binding IC50, analog vs native parent peptide
T1 sequence (P32241 31-457): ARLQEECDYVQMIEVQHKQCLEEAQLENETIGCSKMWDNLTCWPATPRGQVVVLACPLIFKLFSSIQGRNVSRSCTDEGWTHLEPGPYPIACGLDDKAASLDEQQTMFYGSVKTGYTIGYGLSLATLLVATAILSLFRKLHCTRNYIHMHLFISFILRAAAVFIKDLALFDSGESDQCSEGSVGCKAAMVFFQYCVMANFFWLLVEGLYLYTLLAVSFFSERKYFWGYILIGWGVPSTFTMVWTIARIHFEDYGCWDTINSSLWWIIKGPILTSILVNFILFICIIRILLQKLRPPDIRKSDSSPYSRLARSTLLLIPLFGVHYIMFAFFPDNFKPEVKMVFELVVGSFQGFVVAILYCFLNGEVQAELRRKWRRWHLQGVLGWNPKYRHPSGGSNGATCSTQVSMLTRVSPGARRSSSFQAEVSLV

VPAC1-R [2] = biological target: T1, VPAC1-R; test: [3H]cAMP generation in VPAC1-R/PANC-1 cells; assay type: cell-based; conditions: for [3H]cAMP VPAC1-R/PANC-1 % max (agonist class): relative to PACAP38, up to 1 µM
VPAC1-R [3] = biological target: T1, VPAC1-R; test: [3H]cAMP generation in T47D cells; assay type: cell-based; conditions: for [3H]cAMP T47D % max (agonist class): relative to PACAP38, up to 1 µM
VPAC2-R [4] = biological target: T2, VPAC2-R (Homo sapiens, UniProt P41587); test: [3H]cAMP generation in VPAC2-R/PANC-1 cells; assay type: cell-based; conditions: for [3H]cAMP VPAC2-R/PANC-1 % max (agonist class): VPAC2-R/PANC-1 cells, relative to PACAP38, up to 1 µM
T2 sequence (P41587 24-438): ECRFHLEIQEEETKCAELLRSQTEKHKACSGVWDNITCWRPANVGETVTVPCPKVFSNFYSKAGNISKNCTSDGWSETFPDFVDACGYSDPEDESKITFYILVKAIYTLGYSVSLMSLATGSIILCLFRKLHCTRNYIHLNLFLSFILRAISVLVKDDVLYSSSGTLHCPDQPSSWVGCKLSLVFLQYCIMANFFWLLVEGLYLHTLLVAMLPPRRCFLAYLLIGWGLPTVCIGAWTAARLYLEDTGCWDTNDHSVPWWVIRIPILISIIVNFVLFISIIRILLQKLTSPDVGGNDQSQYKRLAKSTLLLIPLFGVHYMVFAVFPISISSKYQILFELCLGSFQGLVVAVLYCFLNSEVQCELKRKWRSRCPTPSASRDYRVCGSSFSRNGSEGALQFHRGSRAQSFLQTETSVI

VPAC2-R [5] = biological target: T2, VPAC2-R; test: Binding of 125I-PACAP27 to VPAC2-R/PANC-1 cells; conditions: ratio of binding IC50, analog vs native parent peptide
PAC1-R [6] = biological target: T3, PAC1-R (Homo sapiens, UniProt P41586); test: Binding of 125I-PACAP27 to PAC1-R stably transfected NIH 3T3 cells; conditions: binding IC50 ratio; for lower affinity for PAC1-R cells than VPAC1-R/PANC-1 cells: VPAC1-R preferring
T3 sequence (P41586 21-468): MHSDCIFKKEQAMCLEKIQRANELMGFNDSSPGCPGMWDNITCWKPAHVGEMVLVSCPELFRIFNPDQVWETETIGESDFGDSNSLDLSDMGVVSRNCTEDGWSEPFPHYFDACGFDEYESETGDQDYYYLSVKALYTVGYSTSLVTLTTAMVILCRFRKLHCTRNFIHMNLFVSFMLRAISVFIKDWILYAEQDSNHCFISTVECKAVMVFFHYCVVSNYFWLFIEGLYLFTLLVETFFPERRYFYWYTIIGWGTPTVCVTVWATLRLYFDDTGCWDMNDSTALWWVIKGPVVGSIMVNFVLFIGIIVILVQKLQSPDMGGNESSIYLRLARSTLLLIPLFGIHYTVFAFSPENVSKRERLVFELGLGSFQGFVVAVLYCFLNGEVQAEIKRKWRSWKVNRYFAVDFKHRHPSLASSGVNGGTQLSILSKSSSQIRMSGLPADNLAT

PAC1-R [7] = biological target: T3, PAC1-R; test: [3H]cAMP generation in PAC1-R cells; assay type: cell-based

Row | Substance | decrease in affinity for VPAC1-R/PANC-1 cells compared to native PACAP38 (or PACAP27, VIP) (VPAC1-R [1]) | [3H]cAMP VPAC1-R/PANC-1 % max of partial agonist (VPAC1-R [2]; VPAC1-R/PANC-1 cells, partial agonist maximum) | [3H]cAMP VPAC1-R/PANC-1 % max (agonist class) (VPAC1-R [2]; VPAC1-R/PANC-1 cells) | [3H]cAMP T47D % max (agonist class) (VPAC1-R [3]) | [3H]cAMP VPAC2-R/PANC-1 % max (agonist class) (VPAC2-R [4]) | decrease in affinity for VPAC2-R/PANC-1 cells compared to native PACAP38 (or PACAP27, VIP) (VPAC2-R [5]) | [3H]cAMP T47D % max, agonist activity at 1 µM, still increasing (VPAC1-R [3]) | lower affinity for PAC1-R cells than VPAC1-R/PANC-1 cells (PAC1-R [6]) | [3H]cAMP PAC1-R % max (agonist class) (PAC1-R [7]; PAC1-R cells, relative to maximal stimulation by PACAP38, up to 1 µM) | lower affinity for PAC1-R cells than VPAC2-R/PANC-1 cells (PAC1-R [6]; VPAC2-R preferring) | [3H]cAMP PAC1-R % max (agonist class) (PAC1-R [7]) | less potent than PACAP38 and PACAP27 at stimulating PAC1-R cells (PAC1-R [7]; cAMP generation) | maximal increase in cAMP, PAC1-R cells (PAC1-R [7]; over control) | maximal increase in cAMP, VPAC1-R/PANC-1 cells (VPAC1-R [2]) | maximal increase in cAMP, VPAC2-R/PANC-1 cells (VPAC2-R [4])
1 | [N-Ac-His^1,Pip^3,Aib^16,Ala^17]PACAP27 [Peptide P8] | > 1,000 fold | pAg (24) % max | partial agonists; also recorded: pAg (24) | No Act | Ag (1 µM, 13) | – | – | – | – | – | – | – | – | – | –
2 | [Pip^3,Aib^16,Ala^17]PACAP27 [Peptide P7] | > 1,000 fold | – | no agonist activity; also recorded: No Act | No Act | no agonist activity; also recorded: No Act | – | – | – | – | – | – | – | – | – | –
3 | [Pro^3]PACAP27 [Peptide P5] | 100–500 fold | – | Ag (1 µM, 23) | Ag (1 µM, 16) | no agonist activity; also recorded: No Act | 6–132 fold | Ag (1 µM, 16) % max | – | – | – | – | – | – | – | –
4 | [Pro^3]VIP [Peptide P50] | > 500 fold | – | Ag (1 µM, 68) | Ag (1 µM, 68) | Ag (1 µM, 52) | > 500 fold | Ag (1 µM, 68) % max | 6–10 fold | no agonist activity; also recorded: No Act | – | – | – | – | – | –
5 | [Sar^3]PACAP27 [Peptide P6] | 100–500 fold | – | – | Ag (1 µM, 69) | no agonist activity; also recorded: No Act | 6–132 fold | Ag (1 µM, 69) % max | – | – | – | – | – | – | – | –
6 | [Sar^4]PACAP27 [Peptide P22] | 100–500 fold | – | no agonist activity; also recorded: No Act | No Act | no agonist activity; also recorded: No Act | 6–132 fold | – | – | – | – | – | – | – | – | –
7 | vasoactive intestinal peptide [VIP, reference compound] | – | – | – | – | – | – | – | > 1,000 fold | – | > 400 fold | No Act | > 800 fold | 4.1 ± 1.5 fold | 5.0 ± 0.7 fold | 6.5 ± 2.0 fold
